Data reported in the NIST ThermoML archive (doi:10.1016/j.fluid.2018.10.006).

Details: Fluid (supercritical or subcritical phases), Coaxial cylinder method

CCCCCC [hexane]
thermal conductivity [W/m/K]
Details	525.42 K	553 K
1000 kPa	–	0.04354
1120 kPa	–	0.0439
1400 kPa	–	0.04407
1500 kPa	–	0.04431
1600 kPa	–	0.04443
1700 kPa	–	0.04455
1800 kPa	–	0.0448
1900 kPa	–	0.04493
2000 kPa	–	0.04518
2100 kPa	–	0.04543
2200 kPa	–	0.04556
2300 kPa	–	0.04582
2400 kPa	–	0.04608
2500 kPa	0.04372	0.04635
2600 kPa	–	0.04661
2700 kPa	–	0.04688
2740 kPa	0.04444	–
2800 kPa	–	0.04716
2850 kPa	0.04444	–
2900 kPa	–	0.04743
3000 kPa	0.04701	0.04743
3050 kPa	0.04756	–
3100 kPa	0.04855	0.04814
3150 kPa	0.04855	–
3200 kPa	0.04958	0.04857
3250 kPa	0.05034	–
3300 kPa	0.05065	0.04897
3350 kPa	0.05177	–
3400 kPa	0.05311	0.04942
3450 kPa	0.0538	–
3500 kPa	0.05526	0.05003
3550 kPa	0.05659	–
3600 kPa	0.05777	0.0505
3650 kPa	0.059	–
3700 kPa	0.0603	0.05127
3750 kPa	0.06164	–
3800 kPa	0.06281	0.05191
3850 kPa	0.06378	–
3900 kPa	0.06477	0.05255
4000 kPa	0.06632	0.05325
4100 kPa	0.06685	0.05395
4200 kPa	0.06685	0.05468
4268 kPa	–	0.05523
4300 kPa	0.06685	–
4390 kPa	–	0.05618
4400 kPa	0.06684	–
4500 kPa	0.06684	–
4600 kPa	0.06684	–
4700 kPa	0.06683	0.0589
4800 kPa	0.06683	0.05987
4900 kPa	0.06848	0.06075
5000 kPa	0.06848	0.06166
5100 kPa	0.06848	–
5200 kPa	0.06848	–
5300 kPa	0.07141	0.06418
5400 kPa	0.07172	–
5500 kPa	0.07172	0.06559
5600 kPa	0.07172	–
5700 kPa	0.07203	–
5800 kPa	0.07203	0.06746
5900 kPa	0.07218	–
6000 kPa	0.07233	0.06843
6100 kPa	0.07249	–
6200 kPa	0.07249	–
6300 kPa	0.07265	0.06974
6400 kPa	0.07281	–
6500 kPa	0.0728	0.07019
6600 kPa	0.07296	–
6700 kPa	0.07312	–
6800 kPa	0.07328	0.07109
6900 kPa	0.07348	–
7000 kPa	0.07361	0.0717
7100 kPa	0.07377	–
7200 kPa	0.07393	0.07202
7317 kPa	0.0741	–
7328 kPa	0.07412	–
7405 kPa	0.07412	–
7500 kPa	0.07428	0.07265
7600 kPa	0.07445	–
7700 kPa	0.07462	–
7800 kPa	0.07478	0.07329
7900 kPa	0.07482	–
8000 kPa	0.07495	0.07361
8100 kPa	0.07512	–
8200 kPa	0.07529	–
8300 kPa	0.07546	0.07427
8400 kPa	0.07546	–
8500 kPa	0.07546	0.07427
8600 kPa	0.07563	–
8700 kPa	0.07583	–
8800 kPa	0.07597	0.07545
8900 kPa	0.07614	–
9000 kPa	0.07632	0.07545
9100 kPa	0.07632	–
9200 kPa	0.07649	–
9250 kPa	–	0.07562
9300 kPa	0.07667	–
9400 kPa	0.07674	–
9500 kPa	0.07684	0.07582
9600 kPa	0.07701	–
9700 kPa	0.07712	–
9800 kPa	0.07726	0.07617
9900 kPa	0.07737	–
10000 kPa	–	0.07635
10150 kPa	0.07772	–
10200 kPa	0.07779	–
10300 kPa	0.07793	0.07652
10400 kPa	0.07804	–
10500 kPa	0.07815	0.07688
10600 kPa	0.07833	–
10800 kPa	0.07855	0.07716
11000 kPa	–	0.0773
11500 kPa	0.07941	0.07777
11600 kPa	0.07956	–
11800 kPa	0.07975	–
12000 kPa	0.07994	0.07832
12300 kPa	0.08032	0.07869
12500 kPa	0.08048	–
12870 kPa	–	0.07914
13500 kPa	–	0.07983
14000 kPa	–	0.08021
14500 kPa	–	0.08068
15000 kPa	–	0.08119
